# Test results reported in US8003645B2, “Preventives or remedies for Alzheimer's disease, or amyloid protein fibril-formation inhibitors, which include a nitrogen-containing heteroaryl compound” (BTG International Ltd., priority 2001, dated 2011).
# Like-named read-outs stand apart in the source and are kept apart here.
# What was measured:
# HeLa cells = test: Action in inhibiting the lowering of MTT reduction capacity by Aβ1-40; assay type: cell-based
# Procedure: The HeLa cells employed were purchased from the Dainippon Pharmaceutical Co.
# The HeLa cells were seeded by suspension in MEM (Minimum essential medium; produced by the Sigma Chemical Co.) containing 10% inactivated FBS (foetal bovine serum) such that there were 1,000 per well in a 96-well microplate, and then culturing was carried out overnight in an incubator at 37° C. in the presence of 5% CO2.
# The test compound was dissolved in dimethyl sulphoxide (DMSO) and diluted with the MEM medium so that the final concentration of DMSO was no more than 0.1 wt %, and added to the cells seeded the previous day. […] Overnight culturing was carried out using an incubator at 37° C. in the presence of 5% CO2, with 100 μL/well of MEM medium containing 5% deactivated FBS.
# Now, prior to use, the Aβ1-40 had been dissolved in buffer and left overnight so that the amyloid coagulated.
# In order to determine the percentage inhibition of the test compound, cells alone, cells where Aβ1-40 had been added, and cells where only the test compound had been added, were also incubated overnight under the same conditions.
# The following day, there was added 10 μL/well of MTT [3-(4,5-dimethylthiazol-2-yl)-2,5-diphenyltetrazolium bromide: produced by Wako Pure Chemical Industries] prepared at a concentration of 5 mg/mL with phosphate buffered saline (PBS), and incubation carried out for 2 hours at 37° C. in the presence of 5% CO2. The medium was then eliminated and the formazan dye produced measured […] (A570 nm-A650 nm) using a Microplate Reader (produced by the Molecular Devices Co.), by dissolving with the addition of 100 μL per well of isopropanol. In this way, the change in the MTT reduction capacity of the HeLa cells was measured.
# The percentage inhibition (%) by the test compound was determined from the following formula. inhibition (%) [[…]/(a−c)]×100 where • a=MTT reduction capacity when untreated • b=MTT reduction capacity when Aβ1-40 and the test compound are added • c=MTT reduction capacity when only Aβ1-40 is added
# [1] = system: acute sections from the hippocampus; test: Suppression of Aβ1-42-induced long-term potentiation impairment (fEPSP slope) in acute hippocampal sections; assay type: cell-based, Wistar rats; conditions: for effect of compound on its own on LTP (result in words): compound alone; for impairment of the LTP due to Aβ1-42 (result in words): pretreating 5 hours with Aβ1-42 together with the compound
# Procedure: The method for testing the suppression of the impairment of long-term potentiation was based on that described in J. Neurosci. Vol. 20, 2003-10 (2000). That is to say, acute^i sections of thickness 400 μm were prepared from the hippocampus of the brains of 3-4 week old male Wistar rats. These acute sections were immersed in artificial cerebrospinal fluid in which β-amyloid protein (Aβ1-42: produced by the Sigma Chemical Co.) and compound from Production Examples 1 or 12 had been dissolved, and pretreatment carried out for 5 hours.
# In the measurement using the compound from Production Example 1, the concentration of the Aβ1-42 in the artificial cerebrospinal fluid was 500 nM and the concentration of the compound from Production Example 1 was 1 μg/mL. In the measurement using the compound from Production Example 12, the concentration of the Aβ1-42 in the artificial cerebrospinal fluid was 1 μM and the concentration of the compound from Production Example 12 was 3 μg/mL. Now, the Aβ1-42 was used after coagulation of the amyloid by leaving overnight.
# 100 pulses of high frequency stimulation at 100 Hz were applied to the pretreated acute sections, and the field excitatory postsynaptic potential: fEPSP) measured by an extracellular recording method.
# The fEPSP was measured at 30 second intervals following application of the high frequency stimulation and the fEPSP slope (units [%]) measured. The average values of the slope over 0-20 minutes, 20-40 minutes and 40-60 minutes were determined. This test was repeated five times over. In the table, the figures are the average values ±standard deviation for the five averages obtained in the five tests. […] “Aβ” denotes the Aβ1-42.
# As controls, measurements were made of the fEPSP [mV] under the same conditions for acute sections pretreated with the artificial cerebrospinal fluid alone, acute sections pretreated with the artificial cerebrospinal fluid in which Aβ1-42 had been dissolved, and acute sections pretreated with artificial cerebrospinal fluid in which only the compound from Production Example 1 or 12 had been dissolved, and then the average value of the fEPSP slope [%] obtained.
# Aβ1-42 = Aβ1-42 (Homo sapiens, UniProt P05067); test: Aβ fibril-formation inhibiting action, thioflavin binding assay; assay type: biochemical; conditions: for activity at 100 µg/mL: Aβ1-42 25 μM + compound 100 μg/mL, incubation 2 days at 37° C., Aβ1-42 alone taken as 100, read-out: fibril-formation inhibiting action (fluorescent intensity %); for Aβ fibril-formation (result in words): compound added prior to fibril formation, thioflavin fluorescence
# Procedure: (§1) The Aβ fibril-formation inhibiting action and fibrillar Aβ breakdown action were evaluated using the thioflavin binding assay method. The details of the test method are based on the method described in J. Biol. Chem. Vol. 274, 25945-25952 (1999).
# In the measurement of the inhibition of Aβ fibril-formation, the concentration of the Aβ1-42 was 25 μM and the concentration of the compound synthesized in Production Example 4 or Production Example 12 was 100 μg/mL in each case. The measurement of the Aβ fibril-formation inhibiting action was carried out following incubation for 2 days at 37° C. of the Aβ1-42 alone and of the Aβ1-42 to which the compound synthesized in Production Example 4 or Production Example 12 had been added.
# (§2) The measurements of the Aβ fibril-formation inhibiting action and of the fibrillar Aβ breakdown action were carried out by placing a 100 μL sample obtained by pretreatment as described above, plus 800 μL of distilled water, 1 mL of glycine (100 mM) and 50 μL of thioflavin (100 μM) in a cuvette, and measuring the fluorescence at an excitation wavelength of 435 nm and a fluorescence wavelength of 490 nm.
# (§3) The figures in the table show the calculated percentages taking the fluorescent intensity obtained when the fluorescence of the sample obtained by incubating Aβ1-42 (25 μM) alone by the above method, and measured at an excitation wavelength of 435 nm and a fluorescence wavelength of 490 nm, was taken as 100. The figures are in the form of the average value ±standard deviation, for the three to nine averages obtained in three to nine tests. […] “Aβ” is for the Aβ1-42.
# fibrillar Aβ1-42 = fibrillar Aβ1-42 (Homo sapiens, UniProt P05067); test: Fibrillar Aβ breakdown action, thioflavin binding assay; assay type: biochemical; conditions: for fibrillar breakdown action (fluorescent intensity %): Aβ1-42 25 μM incubated 2 or 3 days at 37° C., then compound 100 μg/mL, further 2 days, Aβ1-42 alone taken as 100; for fibrillar Aβ breakdown action (result in words): compound added after fibril formation, thioflavin fluorescence
# Procedure: as §1
# In the measurement of the fibrillar Aβ breakdown action, the concentration of the Aβ1-42 was 25 μM and the concentration of the compound synthesized in Production Example 4 or Production Example 12 was 100 μg/mL in each case. After incubating the Aβ1-42 for 2 days or 3 days at 37° C., the compound synthesized in Production Example 4 or Production Example 12 was or was not added, and then further incubation performed for 2 days, after which measurement of the fibrillar Aβ breakdown action was performed.
# as §2, §3
# [2] = Table 8, Aβ (1 μM) + compound 1 μg/mL
# [3] = Table 8, compound alone 1 μg/mL, no Aβ
# [4] = Homo sapiens, HeLa cells, Aβ1-40 (100 nM), read-out: IC50 (action in inhibiting the lowering of the MTT reduction capacity by Aβ1-40)
# [5] = Test 1, Aβ1-42 (500 nM) + compound 1 μg/mL
# [6] = Test 1, compound alone 1 μg/mL, no Aβ
# [7] = Test 2, Aβ1-42 (1 μM) + compound 3 μg/mL
# [8] = Test 2, compound alone 3 μg/mL, no Aβ
# Sequence of Aβ1-42 (P05067 672-713): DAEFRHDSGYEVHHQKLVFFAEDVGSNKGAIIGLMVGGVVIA
# Sequence of fibrillar Aβ1-42 (P05067 672-713): as above
smiles,measurement,setting,value
"CC1(C)CC(C)(c2ccc(O)cc2O)c2ccc(O)cc2O1 (centres unmarked) [Compound A, 4-(7-hydroxy-2,4,4-trimethyl-chroman-4-yl)benzene-1,3-diol, reference compound]",IC50,"HeLa cells; same method as Table 6, HeLa cells, Aβ1-40, read-out: 50% inhibitory concentration (IC50), action in suppressing the lowering of MTT function",12 µM
same,Value of fEPSP Slope [%] 0-20 minutes,[1]; [2],159.5 ± 6.6%
same,Value of fEPSP Slope [%] 20-40 minutes,[1]; [2],142.8 ± 5.4%
same,Value of fEPSP Slope [%] 40-60 minutes,[1]; [2],137.3 ± 4.5%
same,Value of fEPSP Slope [%] 0-20 minutes,[1]; [3],168.6 ± 13.0%
same,Value of fEPSP Slope [%] 20-40 minutes,[1]; [3],146.6 ± 15.9%
same,Value of fEPSP Slope [%] 40-60 minutes,[1]; [3],149.7 ± 16.1%
"CCc1nc(Nc2cccc(O)c2)nc(Nc2cccc(O)c2)n1 [Production Example 1, 6-Ethyl-N,N′-bis(3-hydroxyphenyl)-1,3,5-triazine-2,4-diamine]",IC50,HeLa cells; [4],3.5 µM
same,Value of fEPSP Slope [%] 0-20 minutes,[1]; [5],150.0 ± 8.4%
same,Value of fEPSP Slope [%] 20-40 minutes,[1]; [5],149.6 ± 6.9%
same,Value of fEPSP Slope [%] 40-60 minutes,[1]; [5],151.2 ± 7.5%
same,Value of fEPSP Slope [%] 0-20 minutes,[1]; [6],155.3 ± 3.4%
same,Value of fEPSP Slope [%] 20-40 minutes,[1]; [6],156.5 ± 3.9%
same,Value of fEPSP Slope [%] 40-60 minutes,[1]; [6],155.8 ± 5.0%
same,effect of compound on its own on LTP (result in words),[1]; no Aβ,inactive on its own
same,impairment of the LTP due to Aβ1-42 (result in words),[1],suppressed
"CCc1nc(Nc2cccc(O)c2)cc(Nc2cccc(O)c2)n1 [Production Example 2, 2-Ethyl-N,N′-bis(3-hydroxyphenyl)pyrimidine-4,6-diamine]",IC50,HeLa cells; [4],1.9 µM
"Cc1nc(Nc2cccc(O)c2)cc(Nc2cccc(O)c2)n1 [Production Example 4, 2-Methyl-N,N′-bis(3-hydroxyphenyl)pyrimidine-4,6-diamine]",IC50,HeLa cells; [4],6 µM
same,activity at 100 µg/mL,Aβ1-42,16.3 ± 5.3%
same,Aβ fibril-formation (result in words),Aβ1-42,Aβ fibril-formation was inhibited
same,fibrillar breakdown action (fluorescent intensity %),fibrillar Aβ1-42,30.63 ± 1.26%
same,fibrillar Aβ breakdown action (result in words),fibrillar Aβ1-42,there was a fibrillar Aβ breakdown action
"Oc1cccc(Nc2cc(Nc3cccc(O)c3)ncn2)c1 [Production Example 5, N,N′-bis(3-hydroxyphenyl)pyrimidine-4,6-diamine]",IC50,HeLa cells; [4],9.6 µM
"Oc1cccc(Nc2ccnc(Nc3cccc(O)c3)n2)c1 [Production Example 6, N,N′-bis(3-hydroxyphenyl)pyrimidine-2,4-diamine]",IC50,HeLa cells; [4],6.7 µM
"CCCCc1nc(Nc2cccc(O)c2)cc(Nc2cccc(O)c2)n1 [Production Example 8, 2-Butyl-N,N′-bis(3-hydroxyphenyl)pyrimidine-4,6-diamine]",IC50,HeLa cells; [4],5.5 µM
"CCCc1nc(Nc2cccc(O)c2)cc(Nc2cccc(O)c2)n1 [Production Example 9, 2-Propyl-N,N′-bis(3-hydroxyphenyl)pyrimidine-4,6-diamine]",IC50,HeLa cells; [4],2.4 µM
"CCCc1nc(Nc2cccc(O)c2)nc(Nc2cccc(O)c2)n1 [Production Example 10, N,N′-bis(3-hydroxyphenyl)-6-propyl-1,3,5-triazine-2,4-diamine]",IC50,HeLa cells; [4],4.2 µM
"Oc1cccc(Nc2ccc(Nc3cccc(O)c3)nn2)c1 [Production Example 12, N,N′-bis(3-hydroxyphenyl)pyridazine-3,6-diamine]",Value of fEPSP Slope [%] 0-20 minutes,[1]; [7],161.7 ± 2.6%
same,Value of fEPSP Slope [%] 20-40 minutes,[1]; [7],148.1 ± 3.1%
same,Value of fEPSP Slope [%] 40-60 minutes,[1]; [7],146.2 ± 4.6%
same,Value of fEPSP Slope [%] 0-20 minutes,[1]; [8],175.3 ± 7.4%
same,Value of fEPSP Slope [%] 20-40 minutes,[1]; [8],162.9 ± 9.8%
same,Value of fEPSP Slope [%] 40-60 minutes,[1]; [8],160.8 ± 10.3%
same,effect of compound on its own on LTP (result in words),[1]; no Aβ,inactive on its own
same,impairment of the LTP due to Aβ1-42 (result in words),[1],suppressed
same,activity at 100 µg/mL,Aβ1-42,1.69 ± 1.32%
same,Aβ fibril-formation (result in words),Aβ1-42,Aβ fibril-formation was inhibited
same,fibrillar breakdown action (fluorescent intensity %),fibrillar Aβ1-42,28.49 ± 5.17%
same,fibrillar Aβ breakdown action (result in words),fibrillar Aβ1-42,there was a fibrillar Aβ breakdown action
"Nc1nc(Nc2cccc(O)c2)cc(Nc2cccc(O)c2)n1 [Production Example 13, 2-Amino-N,N′-bis(3-hydroxyphenyl)pyrimidine-4,6-diamine]",IC50,HeLa cells; [4],5.5 µM
"O=[N+]([O-])c1c(Nc2cccc(O)c2)ncnc1Nc1cccc(O)c1 [Production Example 18, N,N′-bis(3-hydroxyphenyl)-5-nitropyrimidine-4,6-diamine]",IC50,HeLa cells; [4],3.8 µM
"Cc1nc(Nc2cccc(O)c2)nc(Nc2cccc(O)c2)n1 [Production Example 27, N,N′-bis(3-hydroxyphenyl)-6-methyl-1,3,5-triazine-2,4-diamine]",IC50,HeLa cells; [4],2.4 µM
"CC(C)(C)c1nc(Nc2cccc(O)c2)nc(Nc2cccc(O)c2)n1 [Production Example 33, 6-t-Butyl-N,N′-bis(3-hydroxyphenyl)-1,3,5-triazine-2,4-diamine]",IC50,HeLa cells; [4],2.2 µM
"CCC(C)c1nc(Nc2cccc(O)c2)nc(Nc2cccc(O)c2)n1 (centres unmarked) [Production Example 34, 6-s-Butyl-N,N′-bis(3-hydroxyphenyl)-1,3,5-triazine-2,4-diamine]",IC50,HeLa cells; [4],4.1 µM
